Entries after “also recorded” stand apart in the source; their conditions may differ.
How the values were obtained:
[1] = test system: prostate cancer cell line PC-3; experiment: MTT assay, human prostate cancer cells; format: cell-based; conditions: concentrations in the range of 10^−7-10^−5 M or higher, FIGS. 2, 16
Text: (§1) The anti-cancer activity of some of the compounds described herein have been tested in one type of such in vitro assay, as described in the examples herein, using a microculture assay with 3-(4,5-dimethylthiazol-2-yl)-2,5-diphenyltetrazolium bromide (“MTT”). This assay has an advantage over in vivo assay in that results are obtained within a week as opposed to several months. The assay can be carried out in 96-well microtiter plates. The MTT assay is based on the production of a dark blue formazan product by dehydrogenase in the mitochondria of live tumor cells after exposure to drug for 6 days [M. C. Alley, D. A. Scudiero, A. Monks, M. L. Hursey, M. J. Czerwinski, D. L. Fine, B. J. Abbout, J. G. Mayo, R. H. Shoemaker and M. R. Boyd, Cancer Res., 48, 589, 1988]. Thus, only live cells are stained and can be measured at 595 nm. Anti-cancer activity can be reported as percent of the tumor cell growth in the presence of compound at a defined dose compared to control/vehicle treated tumor cells. The results of some such screening assays are given in Examples 162a and 162b, and in FIGS. 2, 3, and 15-18.
(§2) The following human cancer cell lines were used to detect anti-cancer activity in the compounds of the invention.
The prostate cancer cell line PC-3 was used to detect […]
(§3) Cell lines were purchased from American Type Culture Collection (ATCC).
(§4) The cancer cell cultures were grown as recommended by the ATTC manuals. A549 cells and BX-PC-3 were grown in DME Dulbecco's modified Eagle's medium containing 4500 mg/L glucose; 4 mM L-glutamine; 10 U/ml Pen-G; 10 mcg/ml […] and 10% fetal calf serum (FCS). PC-3 and MDA-MB468 cells were grown in RPMI medium 1640 containing 2 mM L-glutamine; 10 U/ml Pen-G; 10 mcg/ml Streptomycin and 10% FCS. Cells were kept at 6% CO2 and 37° C. Cells were seeded on day zero in 96-well format tissue culture plates at suitable densities the day before starting treatment, in the media indicated above.
(§5) On day one, the compounds of the invention were added to the culture media of growing cells, containing 10% FCS. The cell media contained the compounds of the invention at one of six concentrations: […], 5×10^−8, 1×10^−7, 5×10^−7, 1×10^−6, and 1×10^−5M. 0.1% DMSO was used as vehicle control, and never exceeded 0.1% final concentration. On day four the media was removed and replaced with fresh media containing the compounds of the invention and FCS.
(§6) The assay is based on the cleavage of the yellow tetrazolium salt MTT to purple formazan crystals by dehydrogenase activity in active mitochondria. This conversion only occurs in living cells with intact/functional mitochondria.
(§7) On day five 10 μl of 5 mg/ml MTT dye are added to each well containing a cell culture. Cells are incubated for additional 4 hours at 6% CO2 and 37° C. Reaction is then stopped by adding 100 μl/well of a solubilization solution consisting of 10% Sodium Dodecyl Sulfate (SDS) and 10 mM HCl On day 6 the formazan crystals formed are solubilized and the resulting colored solution is quantified using a scanning multiwell spectrophotometer at a wavelength of 595 nm.

[2] = molecular target: T1, recombinant human enzyme Cdc25A (Homo sapiens, UniProt P30304); experiment: Cdc25A phosphatase assay (OMFP substrate), inhibition of Cdc25A; format: biochemical; conditions: FIG. 1; inhibition calculated as a percentage of the solvent control
T1 construct: purchased Upstate Biotechnology (Lake Placid, N.Y.)
T1 sequence (P30304 1-524): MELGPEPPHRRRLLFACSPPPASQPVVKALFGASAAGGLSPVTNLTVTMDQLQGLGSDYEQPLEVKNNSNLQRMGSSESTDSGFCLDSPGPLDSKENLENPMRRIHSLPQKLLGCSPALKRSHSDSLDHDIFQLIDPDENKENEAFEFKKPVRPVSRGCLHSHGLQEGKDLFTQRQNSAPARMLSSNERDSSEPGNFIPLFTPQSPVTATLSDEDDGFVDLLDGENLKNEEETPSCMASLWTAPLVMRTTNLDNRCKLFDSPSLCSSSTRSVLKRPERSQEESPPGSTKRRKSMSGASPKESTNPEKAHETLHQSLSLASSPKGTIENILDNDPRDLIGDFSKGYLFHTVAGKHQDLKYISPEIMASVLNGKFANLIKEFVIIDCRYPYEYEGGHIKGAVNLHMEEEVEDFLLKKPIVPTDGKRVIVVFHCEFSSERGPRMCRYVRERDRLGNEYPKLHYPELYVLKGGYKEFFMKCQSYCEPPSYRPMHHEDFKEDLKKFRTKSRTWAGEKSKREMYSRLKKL
Procedure: Therefore, one method of […] screening of the compounds for anti-cancer activity is to test the activity of a particular compound for the ability to inhibit Cdc 25-type phosphatases. The results of one such test are shown in Example 161 below, and FIG. 1.
The phosphatase assay was performed in a 96-well microtiter plate using recombinant human enzyme Cdc25A purchased from Upstate Biotechnology (Lake Placid, N.Y.). Stock solutions of the test compounds were prepared in DMSO. Five μl of suitable dilutions of the compounds were added to the assay. The final volume of the assay was 100 μl. Twenty units of Cdc25A were pre-incubated with the test compounds at 37° C. for 10 min in the reaction mixture containing 100 mM Tris-HCl, pH 8.2, 40 mM NaCl, 1 mM DTT and 20% glycerol. The reaction was initiated by addition of the enzyme substrate […] (OMFP; Sigma, St. Louis, Mo.) at a final concentration of 40 μM and incubated at room temperature for 1 hour. This substrate allows fluorometric determination of enzyme activity. OMFP is readily metabolized to the fluorescent O-methylfluorescein by the enzyme Cdc25A, thus the absorbance of each reaction sample was determined at 477 nm using a plate reader (SpectraMax 340, Molecular Devices, Sunnyvale, Calif.). […] Inhibition of Cdc25A activity by test compounds was calculated as a percentage of the solvent control.

[3] = test system: breast cancer cell line MDA-MB468; experiment: MTT assay, human breast cancer cells; format: cell-based; conditions: concentrations in the range of 10^−7-10^−5 M or higher, FIGS. 2, 17
Text: as §1, §2
The breast cancer cell line MDA-MB468 served to detect anti-breast cancer activity.
as §3, §4, §5, §6, §7

[4] = test system: non-small-cell lung cancer cell line A549; experiment: MTT assay, human non-small-cell lung cancer cells; format: cell-based; conditions: concentrations in the range of 10^−7-10^−5 M or higher, FIGS. 3, 15
Text: as §1, §2
The non-small-cell lung cancer cell line A549 was used to detect anti-lung cancer activity
as §3, §4, §5, §6, §7

[5] = test system: pancreatic cancer cell line BX-PC-3; experiment: MTT assay, human pancreatic cancer cells; format: cell-based; conditions: concentrations in the range of 10^−7-10^−5 M or higher, FIGS. 3, 18
Text: as §1, §2
The pancreatic cancer cell line BX-PC-3 was used to detect anti-pancreatic cancer activity.
as §3, §4, §5, §6, §7

With `O=C1N=C(N2CCCCC2)S/C1=C\c1cccc(-c2ccc(O)c(C34CC5CC(CC(C5)C3)C4)c2)c1` [Compound 3, 5-[3-(3-Adamantan-1-yl-4-hydroxy-phenyl)benzylidene]-2-piperidin-1-yl-thiazol-4-one] the “anticancer cell activity / killing of prostate cancer cells” value [1] was “kill significant percentages of the cells; also recorded: strong anticancer cell activity”, the melting point was 311 to 312 °C and the “selective inhibition of Cdc25 as compared to the dual specificity phosphatase MKP-1” value [2] was “selective inhibition of Cdc25”. The “anticancer cell activity / killing of breast cancer cells” value [3] was “kill significant percentages of the cells; also recorded: strong anticancer cell activity”, the “anticancer cell activity / killing of non-small-cell lung cancer cells” value [4] was “kill significant percentages of the cells; also recorded: strong anticancer all activity” and the “anticancer cell activity / killing of pancreatic cancer cells” value [5] was “kill significant percentages of the cells; also recorded: strong anticancer all activity”.

— patent publication US20040097566A1, “2-Substituted thiazolidinone and oxazolidinone derivatives for the inhibition of phosphatases and the treatment of cancer” (priority 2001, published 2004)
